{"source": "patent US6924353B2", "about": "“Inhibitors for RNA viruses” (priority 2003, dated 2005)", "key": {"rotavirus strain SA 11": {"system": "rotavirus strain SA 11", "test": "Biological activity of trypsin fragments and synthetic versions, MA104 cells infected with rotavirus", "format": "cell-based", "conditions": "tested at 20, 10, 5, 2.5, and 1.0 μg/ml", "experimental": "Biological Activity of Fragments: Initially, the inhibitory activity of the fragments was tested on African green monkey kidney cells MA104 infected with rotavirus strain SA 11. Dulbecco Modified Eagle's Medium (DMEM) containing 10% newborn calf serum (NBCS), L-glutamine and the antibiotics penicillin and streptomycin was used to grow MA 104 and HEp2 cells into monolayers after being monodispersed with a mixture of trypsin/EDTA. The same medium without serum, containing 1 μg/ml trypsin, designated as “special medium,” was used after infecting MA 104 cells with SA 11 virus including the controls. Initially, each fraction was tested on monolayers of MA 104 cells grown in 48 well plates and infected at 10^−2 dilution of SA 11 virus. Before infecting, MA 104 cells were washed with serum free medium. The virus was allowed to absorb for 1 hour at 37° C. in a humid CO2 incubator. After absorption, 0.9 ml of medium was added to each well. Each fraction was tested at the concentration of 20, 10, 5, 2.5, and 1.0 μg/ml. Cells infected with virus received PBS to serve as positive controls, for virus CPE. The tests were read after six days.\nThe sequencing and synthesis was contracted out to the Protein Core Laboratory of Baylor College of Medicine, Houston, Tex."}, "rotavirus SA 11 strain": {"system": "rotavirus SA 11 strain", "test": "Infectivity inhibition by natural and synthetic RIP, rotavirus in MA 104", "format": "cell-based", "conditions": "10 μg/ml; for Log TCID/50: six days", "experimental": "(§1) Infectivity Inhibition of RNA Viruses by Synthetic RIP: For comparison, the natural and the synthetic RIPs were tested in cell cultures infected with different RNA viruses. The cell line MA 104 was used for infecting rotavirus SA 11 strain. HEp2 cells were used for infecting RSV and PIV3 viruses. The cells were infected in serial dilutions from 10^−2 to 10^−8; three wells were used for each dilution. After absorption of the virus, the cultures were divided into three groups. Group one received medium containing PBS as a positive control, group two received medium containing 10 μg/ml of natural RIP, and for the remaining group the medium was incorporated with 10 μg/ml synthetic RIP. The tests were read after six days and TCID/50 were calculated from CPE."}, "RSV": {"system": "RSV", "test": "Infectivity inhibition by natural and synthetic RIP, RSV in HEp2", "format": "cell-based, respiratory syncytial virus", "conditions": "10 μg/ml; for Log TCID/50: six days", "experimental": "as §1\nThe approved drug ribovirin was tested for RSV virus in HEp2 cells at 10 μg/ml concentration. […] Synthetic RIP should be more inhibitory by increasing the concentration."}, "PIV3": {"system": "PIV3", "test": "Infectivity inhibition by natural and synthetic RIP, PIV3 in HEp2", "format": "cell-based, human parainfluenza type 3", "conditions": "10 μg/ml", "experimental": "as §1"}}, "note": "Entries after “also recorded” stand apart in the source; their conditions may differ. Where no end group is shown, it is not given here.", "data": [{"compound": "AKAGSDNTKGGVYPMFGM [SEQ ID. NO.: 2]", "values": [{"measurement": "antiviral activity (inhibition of rotavirus) of fragment and synthetic versions", "setting": "rotavirus strain SA 11", "result": "most active fragment"}, {"measurement": "antiviral activity (inhibition of rotavirus) of fragment and synthetic versions", "setting": "rotavirus strain SA 11; listed as SEQ. ID. NO.: 2", "result": "effective; also recorded: good results"}]}, {"compound": "AKAGSDNTKG [synthetic RIP]", "values": [{"measurement": "antiviral activity (inhibition of rotavirus) of fragment and synthetic versions", "setting": "rotavirus strain SA 11; listed as SEQ. ID. NO.: 4", "result": "most active domain; also recorded: good results"}, {"measurement": "antiviral activity (inhibition of rotavirus) of fragment and synthetic versions", "setting": "rotavirus strain SA 11; listed as SEQ. ID. No.: 4", "result": "the most inhibition"}, {"measurement": "Log Inhibition of infectivity", "setting": "rotavirus SA 11 strain", "result": 1.9, "unit": "Log"}, {"measurement": "Log TCID/50", "setting": "rotavirus SA 11 strain", "result": 4.5, "unit": "Log TCID/50"}, {"measurement": "Log TCID/50", "setting": "rotavirus SA 11 strain; listed as Syn RIP", "result": 4.3, "unit": "Log TCID/50"}, {"measurement": "Log Inhibition of infectivity", "setting": "RSV", "result": 1.7, "unit": "Log"}, {"measurement": "Log TCID/50", "setting": "RSV", "result": 5.8, "unit": "Log TCID/50"}, {"measurement": "Log TCID/50", "setting": "RSV; listed as Syn RIP", "result": 4.5, "unit": "Log TCID/50"}, {"measurement": "Log Inhibition of infectivity", "setting": "PIV3", "result": 2.0, "unit": "Log"}, {"measurement": "Log TCID/50", "setting": "PIV3; six days", "result": 5.8, "unit": "Log TCID/50"}]}, {"compound": "A K A G S D N T K G G V Y P M (ALAGSDNTKGGVYPM; SYNTHESIZED. CORRESPONDS TO POSITIONS 1-15 OF SEQ. ID. NO. 2) [SEQ. ID. NO.: 3, synthetic version, 15 amino acids]", "values": [{"measurement": "antiviral activity (inhibition of rotavirus) of fragment and synthetic versions", "setting": "rotavirus strain SA 11", "result": "effective; also recorded: good results"}]}, {"compound": "A K A G S (AKAGS; SYNTHESIZED. CORRESPONDS TO POSITIONS 1-5 OF SEQ. ID. NO. 2) [SEQ. ID. NO.: 5, synthetic version, five amino acids]", "values": [{"measurement": "antiviral activity (inhibition of rotavirus) of fragment and synthetic versions", "setting": "rotavirus strain SA 11", "result": "good results"}]}, {"compound": "NC(=O)c1ncn([C@@H]2O[C@H](CO)[C@@H](O)[C@H]2O)n1", "note": "[ribovirin, reference compound]", "values": [{"measurement": "Log TCID/50", "setting": "RSV", "result": 5.4, "unit": "Log TCID/50"}]}]}
